Data: patent US11897867B2, “6-phenyl-4,5-dihydropyridazin-3(2H)-one derivatives as PDE3A and PDE3B inhibitors for treating cancer” (Bayer Aktiengesellschaft, priority 2017, dated 2024)

Tests used:
[1] = test system: SK-MEL-3 (melanoma); experiment: Cell proliferation measurement (Cell Titer Glo), SK-MEL-3; assay type: cell-based; conditions: Homo sapiens, SK-MEL3, SK-MEL-3 cells, 72 h treatment, read-out: Anti-proliferation IC50 SK-MEL-3 (melanoma)
Description: (§1) The antiproliferative activity of the compounds of the general formula (I) was examined in vitro in human cancer cells. For this purpose, 1000 cells (or 500 HeLa cells) were plated in 384-well plates with appropriate growth medium and incubated at 37° C. overnight. After 24 h, the cells on the test plate were treated with the compounds of the general formula (I) as and incubated at 37° C. for 72 h. The compounds were added to the cells by means of an HP D300 digital dispenser in a 10 (or more)-step dilution series. As control, the cells were treated with vehicle (DMSO at 0.3% final concentration). After 72 h, the cells were treated with 20 μl/well of 50% CTG solution in PBS (Promega Cell Titer Glo (catalogue #G755B and G756B)) and incubated at room temperature for 10 min, and luminescence was measured by means of a VICTOR V (Perkin Elmer), in order to determine cell viability at the end of treatment. The percentage effect on cell growth and the IC50 derived therefrom were determined for each test substance using the values from untreated wells (=percent viability). The IC50 values were calculated using a 4-parameter fit.

[2] = test system: HeLa cells (cervical cancer); experiment: Cell proliferation measurement (Cell Titer Glo), HeLa; assay type: cell-based; conditions: Homo sapiens, 72 h treatment, read-out: Anti-proliferation IC50 HeLa (Cervical cancer)
Description: as §1

[3] = target: T1, human full length PDE3B (Homo sapiens, UniProt Q13370); experiment: PDE3B enzyme inhibition (3H-cAMP Scintillation Proximity Assay); assay type: biochemical; conditions: PDE3B cell extract from Sf9 cells, 60 min room temperature; read-out: Target IC50 PDE3B IC50
T1 construct: Sf9 cells overexpressing human full length PDE3B; purchased SB Drug Discovery, UK; host or cells: Sf9 cells (cell extract)
Description: The commercially available 3H-cAMP Scintillation Proximity Assay (SPA, Perkin Elmer) system was used for enzyme inhibition studies. For the determination of the in vitro effect of test substances on the PDE3B reactions 2 μl of the respective test compound solution in DMSO (serial dilutions) were placed in wells of microtiter plates (Isoplate-96/200W; Perkin Elmer). 50 μl of a dilution of PDE3B cell extract from Sf9 cells overexpressing human full length PDE3B (SB Drug Discovery, UK) in buffer A (50 mM Tris/HCl pH 7.5, 8.3 mM MgCl2, 1.7 mM EDTA, 0.2% BSA) was added. The dilution of the PDE3B cell extract was chosen such that the reaction kinetics was linear and less than 70% of the substrate was consumed (typical dilution 1:6000). The reaction was started by addition of 50 μl (0.025 μCi) of 1:2000 in buffer A w/o BSA diluted substrate [8-3H] adenosine 3′,5′-cyclic phosphate (1 μCi/μl; Perkin Elmer). After incubation at room temperature for 60 min, the reaction was stopped by addition of 25 μl of a suspension containing 18 mg/ml yttrium scintillation proximity beads (Perkin Elmer) in water. The microtiter plates were sealed and measured in a Microbeta scintillation counter (PerkinElmer Wallac). IC50 values were determined from sigmoidal curves by plotting percentage PDE3B activity vs log compound concentration.

[4] = target: T2, human full length PDE3A (Homo sapiens, UniProt Q14432); experiment: PDE3A enzyme inhibition (3H-cAMP Scintillation Proximity Assay); assay type: biochemical; conditions: PDE3A cell extract from Sf9 cells, 60 min room temperature; read-out: Target IC50 PDE3A IC50
T2 construct: Sf9 cells overexpressing human full length PDE3A; purchased SB Drug Discovery, UK; host or cells: Sf9 cells (cell extract)
Description: The commercially available 3H-cAMP Scintillation Proximity Assay (SPA, Perkin Elmer) system was used for enzyme inhibition studies. For the determination of the in vitro effect of test substances on the PDE3A reactions 2 μl of the respective test compound solution in DMSO (serial dilutions) were is placed in wells of microtiter plates (Isoplate-96/200W; Perkin Elmer). 50 μl of a dilution of PDE3A cell extract from Sf9 cells overexpressing human full length PDE3A (SB Drug Discovery, UK) in buffer A (50 mM Tris/HCl pH 7.5, 8.3 mM MgCl2, 1.7 mM EDTA, 0.2% BSA) was added. The dilution of the PDE3A cell extract was chosen such that the reaction kinetics was linear and less than 70% of the substrate was consumed (typical dilution 1:5000). The reaction was started by addition of 50 μl (0.025 μCi) of 1:2000 in buffer A w/o BSA diluted substrate [8-3H] adenosine 3′,5′-cyclic phosphate (1 μCi/μl; Perkin Elmer). After incubation at room temperature for 60 min, the reaction was stopped by addition of 25 μl of a suspension containing 18 mg/ml yttrium scintillation proximity beads (Perkin Elmer) in water. The microtiter plates were sealed and measured in a Microbeta scintillation counter (PerkinElmer Wallac). IC50 values were determined from sigmoidal curves by plotting percentage PDE3A activity vs log compound concentration.

T2 sequence (Q14432 whole entry): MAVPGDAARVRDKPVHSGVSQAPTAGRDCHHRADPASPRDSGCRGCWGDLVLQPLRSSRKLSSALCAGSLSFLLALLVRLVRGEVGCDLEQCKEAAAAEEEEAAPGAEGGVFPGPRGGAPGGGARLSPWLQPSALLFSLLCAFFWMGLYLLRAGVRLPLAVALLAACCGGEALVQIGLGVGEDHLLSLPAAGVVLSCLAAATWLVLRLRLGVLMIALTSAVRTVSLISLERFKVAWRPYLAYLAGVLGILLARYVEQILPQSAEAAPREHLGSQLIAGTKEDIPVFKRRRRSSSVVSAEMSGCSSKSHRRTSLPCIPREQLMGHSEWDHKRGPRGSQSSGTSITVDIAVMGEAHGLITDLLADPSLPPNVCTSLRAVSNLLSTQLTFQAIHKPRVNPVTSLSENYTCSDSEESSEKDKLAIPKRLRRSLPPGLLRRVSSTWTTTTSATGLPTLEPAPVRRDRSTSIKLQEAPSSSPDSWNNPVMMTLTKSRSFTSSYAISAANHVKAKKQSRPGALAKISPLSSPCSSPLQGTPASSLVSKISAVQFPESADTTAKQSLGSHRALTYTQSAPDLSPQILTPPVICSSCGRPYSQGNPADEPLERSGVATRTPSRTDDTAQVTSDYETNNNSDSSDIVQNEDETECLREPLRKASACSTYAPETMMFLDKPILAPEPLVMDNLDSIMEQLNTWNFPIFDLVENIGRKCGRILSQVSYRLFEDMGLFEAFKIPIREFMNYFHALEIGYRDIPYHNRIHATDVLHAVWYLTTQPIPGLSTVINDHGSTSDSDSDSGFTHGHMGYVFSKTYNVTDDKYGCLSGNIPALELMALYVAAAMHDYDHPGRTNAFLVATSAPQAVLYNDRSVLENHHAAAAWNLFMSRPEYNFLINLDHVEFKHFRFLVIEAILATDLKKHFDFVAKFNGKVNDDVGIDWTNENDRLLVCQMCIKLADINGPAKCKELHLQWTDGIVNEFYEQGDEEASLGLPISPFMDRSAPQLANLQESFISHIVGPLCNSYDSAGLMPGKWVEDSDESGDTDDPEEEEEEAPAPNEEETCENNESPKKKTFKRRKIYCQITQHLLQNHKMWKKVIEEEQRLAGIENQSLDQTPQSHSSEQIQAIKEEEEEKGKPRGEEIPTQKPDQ
T1 sequence (Q13370 whole entry): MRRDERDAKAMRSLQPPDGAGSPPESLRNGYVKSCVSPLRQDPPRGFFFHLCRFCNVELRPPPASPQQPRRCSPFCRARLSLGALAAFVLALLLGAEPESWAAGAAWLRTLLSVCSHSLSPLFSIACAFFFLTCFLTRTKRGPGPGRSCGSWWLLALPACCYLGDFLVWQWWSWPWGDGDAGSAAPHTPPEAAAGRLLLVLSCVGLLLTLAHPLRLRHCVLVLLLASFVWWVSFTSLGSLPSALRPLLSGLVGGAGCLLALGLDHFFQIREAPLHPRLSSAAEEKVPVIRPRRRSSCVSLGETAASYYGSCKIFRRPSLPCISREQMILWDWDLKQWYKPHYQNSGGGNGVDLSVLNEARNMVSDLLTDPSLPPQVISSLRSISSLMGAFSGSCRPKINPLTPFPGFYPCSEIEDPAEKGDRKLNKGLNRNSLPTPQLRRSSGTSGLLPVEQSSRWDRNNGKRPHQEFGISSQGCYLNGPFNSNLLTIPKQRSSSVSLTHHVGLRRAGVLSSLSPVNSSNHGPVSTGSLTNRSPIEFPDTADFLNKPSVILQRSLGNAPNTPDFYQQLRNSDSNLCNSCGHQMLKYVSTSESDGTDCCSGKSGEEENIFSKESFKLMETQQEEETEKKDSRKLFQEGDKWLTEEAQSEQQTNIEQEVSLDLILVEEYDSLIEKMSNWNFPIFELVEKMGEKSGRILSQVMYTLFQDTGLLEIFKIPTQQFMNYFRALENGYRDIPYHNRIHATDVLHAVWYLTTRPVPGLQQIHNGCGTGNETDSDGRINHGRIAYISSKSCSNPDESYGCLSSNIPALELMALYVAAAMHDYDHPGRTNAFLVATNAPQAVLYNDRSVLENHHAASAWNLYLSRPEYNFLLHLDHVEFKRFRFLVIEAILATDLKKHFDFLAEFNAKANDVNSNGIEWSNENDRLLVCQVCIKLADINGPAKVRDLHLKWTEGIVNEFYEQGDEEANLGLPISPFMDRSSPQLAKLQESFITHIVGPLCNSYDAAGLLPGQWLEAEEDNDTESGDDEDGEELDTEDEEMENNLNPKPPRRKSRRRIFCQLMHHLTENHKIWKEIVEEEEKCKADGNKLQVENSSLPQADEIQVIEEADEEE

Compound	IC50 [1]	IC50 [2]	IC50 [3]	IC50 [4]
O=C1CCC(c2ccc(-c3cccnc3F)c(F)c2)=NN1 [Example 72, 6-[3-fluoro-4-(2-fluoropyridin-3-yl)phenyl]-4,5-dihydropyridazin-3(2H)-one]	6.25 nM	4.27 nM	35 nM	39 nM
COc1ncccc1-c1ccc(C2=NNC(=O)CC2)cc1F [Example 70, 6-[3-fluoro-4-(2-methoxypyridin-3-yl)phenyl]-4,5-dihydropyridazin-3(2H)-one]	39.8 nM	22.9 nM	50 nM	57 nM
Cc1cc(C2=NNC(=O)CC2)ccc1-c1cc(F)c(F)cc1F [Example 95, 6-(2′,4′,5′-trifluoro-2-methyl[1,1′-biphenyl]-4-yl)-4,5-dihydropyridazin-3(2H)-one]	60.7 nM	9.32 nM	200 nM	180 nM
Cc1cc(C2=NNC(=O)CC2)ccc1-c1cccnc1 [Example 2, 6-[3-Methyl-4-(pyridin-3-yl)phenyl]-4,5-dihydropyridazin-3(2H)-one]	14.5 nM	5.72 nM	67 nM	65 nM
Cc1cc(C2=NNC(=O)CC2)ccc1-c1ccc(F)c(F)c1F [Example 97, 6-(2′,3′,4′-trifluoro-2-methyl[1,1′-biphenyl]-4-yl)-4,5-dihydropyridazin-3(2H)-one]	82 nM	12.1 nM	120 nM	170 nM
Cc1cc(C2=NNC(=O)CC2)ccc1-c1ccc(C#N)cc1 [Example 100, 2′-methyl-4′-(6-oxo-1,4,5,6-tetrahydropyridazin-3-yl)[1,1′-biphenyl]-4-carbonitrile]	> 100 nM	22.5 nM	59 nM	58 nM
Cc1cc(C2=NNC(=O)CC2)ccc1-c1ccccc1F [Example 109, 6-(2′-fluoro-2-methyl[1,1′-biphenyl]-4-yl)-4,5-dihydropyridazin-3(2H)-one]	14.1 nM	5.63 nM	150 nM	150 nM
Cc1cc(C2=NNC(=O)CC2)ccc1-c1ccccc1C#N [Example 99, 2′-methyl-4′-(6-oxo-1,4,5,6-tetrahydropyridazin-3-yl)[1,1′-biphenyl]-2-carbonitrile]	> 100 nM	39.9 nM	530 nM	280 nM
COc1ccccc1-c1ccc(C2=NNC(=O)CC2)cc1C [Example 111, 6-(2′-methoxy-2-methyl[1,1′-biphenyl]-4-yl)-4,5-dihydropyridazin-3(2H)-one]	> 100 nM	39.6 nM	32 nM	42 nM
Cc1cc(C2=NNC(=O)CC2)ccc1-c1cccc(N)c1 [Example 103, 6-(3′-amino-2-methyl[1,1′-biphenyl]-4-yl)-4,5-dihydropyridazin-3(2H)-one]	> 100 nM	36.8 nM	200 nM	170 nM
O=C1CCC(c2ccc(-c3ccoc3)c(F)c2)=NN1 [Example 45, 6-[3-fluoro-4-(furan-3-yl)phenyl]-4,5-dihydropyridazin-3(2H)-one]	13.7 nM	10.4 nM	310 nM	370 nM
Cc1ccncc1-c1ccc(C2=NNC(=O)CC2)cc1F [Example 67, 6-[3-fluoro-4-(4-methylpyridin-3-yl)phenyl]-4,5-dihydropyridazin-3(2H)-one]	3.66 nM	2.11 nM	28 nM	56 nM
CCc1ccccc1-c1ccc(C2=NNC(=O)CC2)cc1C [Example 117, 6-(2′-ethyl-2-methyl[1,1′-biphenyl]-4-yl)-4,5-dihydropyridazin-3(2H)-one]	> 100 nM	51.4 nM	440 nM	540 nM
O=C1CCC(c2cc(F)c(N3CCCCC3)c(F)c2)=NN1 [Example 16, 6-[3,5-Difluoro-4-(piperidin-1-yl)phenyl]-4,5-dihydropyridazin-3(2H)-one]	9.8 nM	4.86 nM	128 nM	405 nM
Nc1ccccc1-c1ccc(C2=NNC(=O)CC2)cc1F [Example 66, 6-(2′-amino-2-fluoro[1,1′-biphenyl]-4-yl)-4,5-dihydropyridazin-3(2H)-one]	> 100 nM	> 100 nM	290 nM	330 nM
Cc1ccc(-c2ccc(C3=NNC(=O)CC3)cc2C)cc1 [Example 121, 6-(2,4′-dimethyl[1,1′-biphenyl]-4-yl)-4,5-dihydropyridazin-3(2H)-one]	33.6 nM	7.15 nM	230 nM	230 nM
Cc1ccc(-c2ccc(C3=NNC(=O)CC3)cc2F)c(C)c1 [Example 56, 6-(2-fluoro-2′,4′-dimethyl[1,1′-biphenyl]-4-yl)-4,5-dihydropyridazin-3(2H)-one]	7.24 nM	4.34 nM	62 nM	110 nM
O=C1CCC(c2ccc(-c3ccc(F)c(F)c3F)c(F)c2)=NN1 [Example 39, 6-(2,2′,3′,4′-tetrafluoro[1,1′-biphenyl]-4-yl)-4,5-dihydropyridazin-3(2H)-one]	8.4 nM	5.25 nM	80 nM	82 nM
O=C1CCC(c2ccc(-c3ccccc3O)c(F)c2)=NN1 [Example 50, 6-(2-fluoro-2′-hydroxy[1,1′-biphenyl]-4-yl)-4,5-dihydropyridazin-3(2H)-one]	4.03 nM	2.83 nM	130 nM	130 nM
Cc1ccc(-c2ccc(C3=NNC(=O)CC3)cc2F)c(F)c1 [Example 37, 6-(2,2′-difluoro-4′-methyl[1,1′-biphenyl]-4-yl)-4,5-dihydropyridazin-3(2H)-one]	7.31 nM	4 nM	100 nM	130 nM
COc1ccc(-c2ccc(C3=NNC(=O)CC3)cc2C)cn1 [Example 118, 6-[4-(6-methoxypyridin-3-yl)-3-methylphenyl]-4,5-dihydropyridazin-3(2H)-one]	> 100 nM	55.4 nM	90 nM	76 nM
Cc1cccc(-c2ccc(C3=NNC(=O)CC3)cc2F)c1C [Example 85, 6-(2-fluoro-2′,3′-dimethyl[1,1′-biphenyl]-4-yl)-4,5-dihydropyridazin-3(2H)-one]	40.4 nM	18.9 nM	150 nM	240 nM
O=C1CCC(c2ccc(-c3ccc(F)c(F)c3)c(F)c2)=NN1 [Example 51, 6-(2,3′,4′-trifluoro[1,1′-biphenyl]-4-yl)-4,5-dihydropyridazin-3(2H)-one]	9.51 nM	5.26 nM	92 nM	120 nM
Cc1ccc(-c2ccc(C3=NNC(=O)CC3)cc2C)c(F)c1 [Example 94, 6-(2′-fluoro-2,4′-dimethyl[1,1′-biphenyl]-4-yl)-4,5-dihydropyridazin-3(2H)-one]	36.9 nM	7.01 nM	175 nM	190 nM
